Experimental data as given in ChEMBL document CHEMBL5252565, “Advances in research on 3C-like protease (3CLpro) inhibitors against SARS-CoV-2 since 2020” (RSC Med Chem, 2023).

Tests used:
SARS-CoV-2 [1] = test: Antiviral activity against SARS-CoV-2 infected in African green monkey Vero E6 cells assessed as reduction in infection measured after 24 hrs by Plaque assay; format: functional, organism-based; conditions: Severe acute respiratory syndrome coronavirus 2, Vero C1008, 24 h
[2] = Oral bioavailability in mouse by LC-MS/MS analysis; format: ADME, organism-based; conditions: in vivo
[3] = Oral bioavailability in Sprague-Dawley rat by LC-MS/MS analysis; format: ADME, organism-based; conditions: in vivo
[4] = Oral bioavailability in Beagle dog by LC-MS/MS analysis; format: ADME, organism-based, Canis lupus familiaris; conditions: in vivo
[5] = target: T1, Replicase polyprotein 1ab (Severe acute respiratory syndrome coronavirus 2, UniProt P0DTD1); test: Inhibition of SARS-CoV-2 HKU-001a 3CL protease
Trypsin = Trypsin (Homo sapiens, UniProt P07477+P07478+P35030); test: Inhibition of human Trypsin using Z-Phe-Arg-AMC as substrate incubated for 30 mins by FRET assay; format: protein assay
SARS-CoV-2 [6] = test: Antiviral activity against SARS-CoV-2 infected in […] Caco-2 cells; format: functional, organism-based; conditions: Severe acute respiratory syndrome coronavirus 2, Caco-2
[7] = Inhibition of human cathepsin using Z-Phe-Arg-AMC as substrate incubated for 30 mins by FRET assay
SARS-CoV-2 [8] = test: Antiviral activity against SARS-CoV-2 infected in African green monkey Vero E6 cells; format: functional, organism-based; conditions: Severe acute respiratory syndrome coronavirus 2, Vero C1008
Calpain1/2 = target: T2, Calpain1/2 (Homo sapiens, UniProt P17655+P07384); test: Inhibition of human calpain using Z-Phe-Arg-AMC as substrate incubated for 30 mins by FRET assay; format: protein assay
T2 sequence (P17655 whole entry): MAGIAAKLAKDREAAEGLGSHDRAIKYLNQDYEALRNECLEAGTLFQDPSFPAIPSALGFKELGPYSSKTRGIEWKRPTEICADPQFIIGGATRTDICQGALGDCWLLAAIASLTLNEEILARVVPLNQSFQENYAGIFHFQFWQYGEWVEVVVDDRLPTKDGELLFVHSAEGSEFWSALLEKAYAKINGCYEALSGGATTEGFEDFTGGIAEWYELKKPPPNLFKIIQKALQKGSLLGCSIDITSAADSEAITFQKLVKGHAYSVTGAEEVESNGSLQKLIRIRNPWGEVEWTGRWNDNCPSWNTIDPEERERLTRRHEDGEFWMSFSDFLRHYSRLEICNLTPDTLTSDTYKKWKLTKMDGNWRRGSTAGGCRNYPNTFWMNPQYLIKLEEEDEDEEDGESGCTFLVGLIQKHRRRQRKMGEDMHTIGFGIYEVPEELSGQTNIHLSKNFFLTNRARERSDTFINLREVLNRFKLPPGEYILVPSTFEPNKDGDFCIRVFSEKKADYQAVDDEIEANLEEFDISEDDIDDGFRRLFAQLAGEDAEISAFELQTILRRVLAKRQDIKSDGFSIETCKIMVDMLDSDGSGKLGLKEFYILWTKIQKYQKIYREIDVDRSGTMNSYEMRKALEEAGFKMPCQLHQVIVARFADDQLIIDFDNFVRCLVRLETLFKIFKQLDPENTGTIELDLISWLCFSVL
T2 sequence (P07384 whole entry): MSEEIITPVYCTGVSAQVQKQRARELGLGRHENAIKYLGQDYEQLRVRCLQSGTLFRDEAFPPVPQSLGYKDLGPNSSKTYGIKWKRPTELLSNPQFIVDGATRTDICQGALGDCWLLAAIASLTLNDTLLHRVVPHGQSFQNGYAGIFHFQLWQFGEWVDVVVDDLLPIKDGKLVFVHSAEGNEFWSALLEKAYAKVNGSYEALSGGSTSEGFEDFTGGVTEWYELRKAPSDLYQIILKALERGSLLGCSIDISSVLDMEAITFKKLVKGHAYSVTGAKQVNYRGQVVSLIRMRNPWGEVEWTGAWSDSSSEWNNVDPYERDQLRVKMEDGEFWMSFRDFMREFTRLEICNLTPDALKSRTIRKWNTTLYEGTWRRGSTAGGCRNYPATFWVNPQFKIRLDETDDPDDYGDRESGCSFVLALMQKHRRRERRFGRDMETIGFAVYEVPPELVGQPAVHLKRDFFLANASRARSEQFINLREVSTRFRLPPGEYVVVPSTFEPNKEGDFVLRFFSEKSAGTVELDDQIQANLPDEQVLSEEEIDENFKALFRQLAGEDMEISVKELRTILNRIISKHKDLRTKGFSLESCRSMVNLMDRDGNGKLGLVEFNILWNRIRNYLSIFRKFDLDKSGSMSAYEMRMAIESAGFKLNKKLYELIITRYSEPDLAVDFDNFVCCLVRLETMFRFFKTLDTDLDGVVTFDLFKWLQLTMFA

Caspase-3 = target: T3, Caspase-3 (Homo sapiens, UniProt P42574); test: Inhibition of human caspase 3 using Z-Phe-Arg-AMC as substrate incubated for 30 mins by FRET assay
T3 sequence (P42574 whole entry): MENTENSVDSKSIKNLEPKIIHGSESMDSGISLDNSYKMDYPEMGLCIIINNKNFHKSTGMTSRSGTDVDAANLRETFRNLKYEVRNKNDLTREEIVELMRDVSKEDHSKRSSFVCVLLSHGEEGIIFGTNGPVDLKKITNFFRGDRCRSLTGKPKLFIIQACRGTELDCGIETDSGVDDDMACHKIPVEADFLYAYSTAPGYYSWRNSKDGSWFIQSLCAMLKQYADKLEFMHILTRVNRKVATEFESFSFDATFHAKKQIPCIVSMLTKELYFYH

[9] = target: T1, Replicase polyprotein 1ab; test: Inhibition of SARS-CoV-2 3CL protease
[10] = target: T1, Replicase polyprotein 1ab; test: Inhibition of SARS-CoV-2 3CL protease expressed in escherichia coli measured after 24 hrs by SDS-PAGE
Homo sapiens [11] = species: Homo sapiens; test: Antiviral activity against SARS-CoV-2 infected in human A549-ACE2 cells by immunofluorescence microscopic technique; format: functional, cell-based
Homo sapiens [12] = species: Homo sapiens; test: Antiviral activity against SARS-CoV-2 infected in human A549-ACE2 cells; format: functional, cell-based

O=C[C@H](C[C@@H]1CCNC1=O)NC(=O)[C@H](Cc1cccc(F)c1)NC(=O)c1cc2ccccc2[nH]1
IC50 (SARS-CoV-2 [1]): 0.72 µM

[2H][C@](C(=O)N[C@@H](C)c1ccc(F)cc1)(c1cccnc1)N(C(=O)C(C)=O)c1ccc2c(c1)oc1ccccc12
bioavailability [2]: 92.9% | bioavailability [3]: 31.9% | bioavailability [4]: 85.7% | IC50 [5]: 0.0081 µM

C[C@H](NC(=O)[C@@H](c1cccnc1)N(C(=O)C(Cl)Cl)c1ccc(-c2ccccc2)cc1)c1ccccc1
IC50 (Trypsin): > 20 µM | EC50 (SARS-CoV-2 [6]): 2.05 µM | IC50 [7]: > 20 µM | EC50 (SARS-CoV-2 [8]): 0.9 µM | IC50 (Calpain1/2): > 20 µM | IC50 (Caspase-3): > 20 µM

O=C[C@H](C[C@@H]1CCNC1=O)NC(=O)[C@@H]1[C@H]2CCC[C@H]2CN1C(=O)CCc1cc(F)cc(F)c1
IC50 [9]: 7.6 µM

CNC(=O)c1cc(Br)cc([N+](=O)[O-])c1N[C@@H]1CCCC[C@@H]1NC(=O)c1cccc2ccccc12
IC50 [10]: 0.072 µM | EC50 (Homo sapiens [11]): 0.012 µM

Cc1ccc(NC(=O)c2ccc(CN3CCN(C)CC3)cc2)cc1Nc1nc(-c2cccnc2)cs1 [MASITINIB]
EC50 (Homo sapiens [12]): 3.2 µM
